Patent publication US20210207099A1, “METHODS AND COMPOSITIONS FOR GENERATING CELLS OF ENDODERMAL LINEAGE AND BETA CELLS AND USES THEREOF” (priority 2018, published 2021)

What was measured:
Stage 6 cells [1] = assay: Perifusion GSIS with sequential secretagogue challenges; assay type: cell-based, human; settings: for insulin secretion during second challenge, secretagogue added to 20 mM glucose: 30 mM KCL, 20 mM L-Arginine, 300 μM Tolbutamide, 100 μM IBMX, 10 nM Extendin-4
Description: The system used a high precision 8-channel dispenser pump (ISMATEC; ISM931C) in conjunction with 0.015″ inlet and outlet two-stop tubing (ISMATEC; 070602-04i-ND) connected to 275-μl cell chamber (BioRep; Pen-Chamber) and dispensing nozzle (BioRep; PERI-NOZZLE) using 0.04″ connection tubbing (BioRep; Peri-TUB-040). Solutions, tubing, and cells were maintained at 37° C. in a water bath. Stage 6 clusters and cadaveric human islets were washed with KRB twice and resuspended in 2 mM glucose KRB. Cells were then loaded onto a Biorep perifusion chamber sandwiched between two layers of Bio-Gel P-4 polyacrylamide beads (Bio-Rad; 150-4124). Cells were perfused with 2 mM glucose KRB for 90 min prior to sample collection for equilibration. For single high glucose challenges, sample collection was started with cells exposed to 2 mM glucose KRB for 12 min, followed by 24 min of 20 mM glucose KRB, and back to 2 mM glucose KRB for an additional 12 min. For multiple secretagogue challenges, sample collection was started with cells exposed to 2 mM glucose KRB for 6 min, followed by 12 min of 20 mM glucose KRB, 6 min 2 mM glucose KRB, 12 min of 20 mM glucose KRB plus treatment, and finally 6 min of 2 mM glucose KRB. Treatments with multiple secretagogues were as follows: 20 mM glucose only, 10 nM Extendin-4 (MilliporeSigma; E7144), 100 μM IBMX (MilliporeSigma; 15879), 300 μM Tolbutamide (MilliporeSigma; T0891), 20 mM L-Arginine (MilliporeSigma; A5006), and 30 mM KCL (Thermo Fisher; BP366500). Effluent was collected at a 100 μl/min flow rate with 2-4 min collection points. After sample collection, clusters were collected and lysed in 10 mM Tris (MilliporeSigma; T6066), 1 mM EDTA, and 0.2% Triton-X 100 solution and DNA was quantified using Quant-iT Picogreen dsDNA assay kit (Invitrogen; P7589). Insulin secretion was quantified using the Human Insulin Elisa kit.

Stage 6 cells [2] = tested on: Stage 6 cells
Description: (§1) Assays were performed by collecting ˜20-30 stage 6 clusters or cadaveric human islets, washed twice with KRB buffer (128 mM NaCl, 5 mM KCl, 2.7 mM CaCl2) 1.2 mM MgSO4, 1 mM Na2HPO4, 1.2 mM KH2PO4, 5 mM NaHCO3, 10 mM HEPES (Gibco; 15630-080), and 0.1% BSA), resuspended in 2 mM glucose KRB, and placed into transwells (Corning; 431752) in 24-well plates. Clusters were incubated at 2 mM glucose KRB for a 1 hr equilibration. The transwell was then drained and transferred into a new 2 mM glucose KRB well, discarding the old KRB solution. Clusters were again incubated for 1 hr at low glucose and then the transwell is drained and transferred into a new 2, 5.6, 11.1, or 20 mM glucose KRB well, retaining the old 2 mM glucose KRB. Clusters were then incubated for 1 hr at high glucose and then the transwell was drained and the old glucose KRB was retained. The retained KRB was run with the Human Insulin Elisa (ALPCO; 80-INSHU-E10.1) to quantify insulin secretion. The cells were single-cell dispersed by TrypLE treatment, counted on a Vi-Cell XR, and viable cell counts used to normalize insulin secretion.

[3] = tested on: TGFβ signaling (phosphorylated SMAD); assay: Western blot of SMAD 2/3 phosphorylation in Stage 6 cells; assay type: cell-based, human; settings: Alk5i versus DMSO
Description: Protein was extracted from cell clusters after washing with PBS by placing in western blot lysis buffer consisting 50 mM HEPES, 140 mM NaCl (MilliporeSigma; 7647-14-5), 1 mM EDTA (MilliporeSigma, 1233508), 1% Triton X-100, 0.1% Na-deoxycholate (MilliporeSigma: D6750), 0.1% SDS (ThermoScientific; 24730020), 1 mM Na3VO4 (MilliporeSigma; 450243), 10 mM NaF (MilliporeSigma; S7920), and 1% Protease Inhibitor Cocktail (MilliporeSigma; p8340), incubating on a shaker for 15 min at 4° C., and centrifuging at 10000 RCF for 10 min at 4° C. Protein amount was quantified with the Pierce BCA Protein Assay (Thermo Scientific; 23228). Protein (30 μg) was loaded onto a 4-20% gradient polyacrylamide gel (Invitrogen; SP04200BOX), resolved by electrophoresis, and transferred onto a 0.45 μm nitrocellulose membrane (BioRad; 1620115). The nitrocellulose membrane was blocked with Blotting Grade Blocker (BioRad; 170-6404) and incubated with rabbit-anti-phospho-SMAD⅔ 1:1000 (Cell Signaling Technologies; 8828) and rabbit-anti-Actin 1:1000 (Santa Cruz Biotechnology; SC1616) antibodies in blocker overnight at 4° C. Membrane was washed and stained with rabbit secondary antibody 1:2500 (Jackson Immuno Research Laboratories; 211-032-171) in blocker for 2 hr at 4° C. and developed using SuperSignal West Femto (Thermo Scientific; 34096). Images were taken on an Odyssey FC (Li-COR). After imaging, the nitrocellulose membrane was stripped using Restore Western Blot Stripping Buffer (Thermo Scientific; 21059), incubated with rabbit-anti-SMAD⅔ (Cell Signaling Technologies; 8685) antibody overnight at 4° C., washed and stained with rabbit secondary antibody 1:2500 in blocker for 2 hr 4° C., developed using SuperSignal West Femto, and imaged using the Odyssey FC.

Stage 5 cells = tested on: Stage 5 cells
Description: To initiate differentiation, undifferentiated cells were single-cell dispersed using Accutase and seeded at 6×10^5 cells/mL in mTeSR1+10 μM Y27632 in a 30-ml spinner flask. Cells were then cultured for 72 hr in mTeSR1 and then cultured in the following differentiation media. Stage 1 (3 days): S1 media+100 ng/ml Activin A (R&D Systems; 338-AC)+3 μM Chir99021 (Stemgent; 04-0004-10) for 1 day. S1 media+100 ng/ml Activin A for 2 days. Stage 2 (3 days): S2 media+50 ng/ml KGF (Peprotech; AF-100-19). Stage 3 (1 day): S3 media+50 ng/ml KGF+200 nM LDN193189 (Reprocell; 040074)+500 nM PdBU (MilliporeSigma; 524390)+2 μM Retinoic Acid (MilliporeSigma; R2625)+0.25 μM Sant1 (MilliporeSigma; S4572)+10 μM Y27632. Stage 4 (5 days): S4 media+5 ng/mL Activin A+50 ng/mL KGF+0.1 μM Retinoic Acid+0.25 μM SANT1+10 μM Y27632. Stage 5 (7 days): S5 media+10 μM ALK5i II (Enzo Life Sciences; ALX-270-445-M005)+20 ng/mL Betacellulin (R&D Systems; 261-CE-050)+0.1 μM Retinoic Acid+0.25 μM SANT1+1 μM T3 (Biosciences; 64245)+1 μM XXI (MilliporeSigma; 595790). Stage 6 (7-35 days): ESFM.
as §1
Clusters were single-cell dispersed with TrypLE, fixed with 4% paraformaldehyde for 30 min at 4° C., blocked and permeabilized with staining buffer for 30 min at 4° C., incubated with primary antibodies in staining buffer overnight at 4° C., incubated with secondary antibodies in staining buffer for 2 hr at 4° C., resuspended in staining buffer, and analyzed on an LSRII (BD Biosciences) or X-20 (BD Biosciences). Dot plots and percentages were generated using FlowJo. All antibodies were used at 1:300 dilution except where noted. The antibodies used were: rat-anti-C-peptide, mouse-anti-nkx6.1 (1:100), mouse-anti-glucagon, rabbit-anti-somatostatin, rabbit-anti-chromogranin A (1:1000), goat-anti-pdx1, anti-rat-alexa fluor 488, anti-mouse-alexa fluor 647 (Invitrogen; a31571), anti-rabbit-alexa fluor 647 (Invitrogen; a31573), anti-goat-alexa fluor 647 (Invitrogen; a21447), anti-rabbit-alexa fluor 488 (Invitrogen; a21206).
RNA was extracted using the RNeasy Mini Kit (Qiagen; 74016) with DNase treatment (Qiagen; 79254), and cDNA was synthesized using High Capacity cDNA Reverse Transcriptase Kit (Applied Biosystems; 4368814). Real-time PCR reactions were performed in PowerUp SYBR Green Master Mix (Applied Biosystems; A25741) on a StepOnePlus (Applied Biosystems) and analyzed using ΔΔCt methodology. TBP was used as a normalization gene.

plated stage 4 cells = assay: qRT-PCR and immunostaining of plated stage 4 cells treated with cytoskeletal modifying compounds; assay type: cell-based, human
Source text: For experiments investigating the effects of plating pancreatic progenitors, cells were differentiated with the suspension protocol for stages 1-3. At the end of stage 3, clusters were single cell dispersed with TrypLE and plated onto tissue culture plates coated with various ECM proteins at 0.625×10^6 cells/cm^2. Differentiation media for the remainder of this hybrid protocol were the same as for the suspension protocol with the exception that Y-27632 and Activin A were omitted on days 2-5 of stage 4. Additional compounds were added as indicated in each experiment: 1 μM latrunculin A (Cayman Chemical, 10010630), 1 μM latrunculin B (Cayman Chemical, 10010631), 1 μM cytochalasin D (MilliporeSigma, C2618), 1 μM jasplakinolide (Cayman Chemical, 11705), 10 μM blebbistatin (MilliporeSigma, 203389), 1 μM nocodazole (Cayman Chemical, 13857), 1 μM Y-15 (Cayman Chemical, 14485), 10 μM Y-27632, and 10 μM GDC-0994 (Selleckchem, S7554). A variety of ECM coatings were initially tested with this plating methodology, including collagen I (Corning, 354249), collagen IV (Corning, 354245), fibronectin (Gibco, 33016-015), vitronectin (Gibco, A14700), matrigel (Corning, 356230), gelatin (Fisher, G7-500), and laminins 111, 121, 211, 221, 411, 421, 511, and 521 (Biolamina, LNKT-0201). All subsequent experiments with this hybrid protocol were performed on collagen I.
Brightfield images were taken with a Leica DMi1 inverted light microscope, and fluorescence images were captured with a Nikon A1Rsi confocal microscope. For immunostaining, cells were fixed with 4% paraformaldehyde (PFA) at room temperature for 30 minutes. They were then blocked and permeabilized for 45 minutes at room temperature with an immunocytochemistry (ICC) solution consisting of 0.1% triton X (Acros Organics, 327371000) and 5% donkey serum (Jackson Immunoresearch, 017000-121) in PBS (Corning, 21-040-CV). Samples were then incubated with primary antibodies diluted in ICC solution overnight at 4° C., washed with ICC, incubated with secondary antibodies diluted in ICC for 2 hours at room temperature, and stained with DAPI for 15 minutes at room temperature. For histological sectioning, whole SC-β cell clusters generated with the planar protocol and mouse kidneys containing transplanted cells were fixed overnight with 4% PFA at 4° C. The in vitro clusters were also embedded in Histogel (Thermo Scientific, hg-4000-012). These samples were then paraffin-embedded and sectioned by the Division of Comparative Medicine (DCM) Research Animal Diagnostic Laboratory Core at Washington University in St. Louis. Paraffin was removed from sectioned samples with Histoclear (Thermo Scientific, C78-2-G), and antigen retrieval was carried out in a pressure cooker (Proteogenix, 2100 Retriever) with 0.05 M EDTA (Ambion, AM9261). Slides were blocked and permeabilized with ICC solution for 45 minutes, incubated with primary antibodies in ICC solution overnight at 4° C., and incubated with secondary antibodies for 2 hours at room temperature. Slides were then sealed with DAPI Fluoromount-G (SouthernBiotech, 0100-20).
RNA was extracted from either whole clusters or cells directly on the plate with the RNeasy Mini Kit (Qiagen, 74016). Samples were treated with a DNAse kit (Qiagen, 79254) during extraction. The High Capacity cDNA Reverse Transcriptase Kit (Applied Biosystems, 4368814) was used to synthesize cDNA on a thermocycler (Applied Biosystems, A37028). The PowerUp SYBR Green Master Mix (Applied Biosystems, A25741) was used on a StepOnePlus (Applied Biosystems), and real time PCR results were analyzed using a ΔΔCt methodology. TBP and GUSB were both used as housekeeping genes. Primer sequences were as follows.

`CC(C)Cn1c(=O)n(C)c(=O)c2[nH]cnc21` [3-isobutyl-1-methylxanthine] was tested, and the “insulin secretion during second challenge, secretagogue added to 20 mM glucose” value (Stage 6 cells [1]) was “increased insulin secretion over high glucose alone”.

`Cc1cccc(-c2[nH]ncc2-c2ccc3ncccc3n2)n1` [Alk5i, Alk5 inhibitor type II] was tested, and the “GSIS in a static assay with inclusion during Stage 6” value (Stage 6 cells [2]; Alk5i during Stage 6) was “relatively weak but statistically significant GSIS”, the “insulin secretion in the dynamic GSIS assay” value (Stage 6 cells [2]; Alk5i during Stage 6) was “dramatically reduced insulin secretion” and the proinsulin/insulin ratio (Stage 6 cells [2]; DMSO versus Alk5i during Stage 6) was “remained similar”. For the same compound, the “fraction of cells expressing pancreatic endocrine markers, including C-peptide” value (Stage 6 cells [2]; DMSO- versus Alk5i-treated cells, Stage 6) was “remained similar”, the insulin content (Stage 6 cells [2]; removal of Alk5i during Stage 6 versus treatment) was “increased with removal of Alk5i” and the “phosphorylated SMAD” value [3] was “diminished phosphorylated SMAD”. The “insulin secretion after further 7 d in Stage 6” value (Stage 5 cells; Alk5i during Stage 5, Stage 6 without Alk5i nor cluster resizing, 20 mM glucose) was “substantially higher in cells treated with Alk5i during Stage 5”, the “INS and GCG gene expression” value (Stage 5 cells; Alk5i omission during Stage 5) was “decreased with Alk5i omission” and the SST expression (Stage 5 cells; Alk5i omission during Stage 5) was “slightly increased”. The “fraction of cells co-expressing C-peptide and NKX6-1” value (Stage 5 cells; omitting Alk5i during Stage 5) was “decreased by omitting Alk5i”, the “fraction of cells differentiated to a C-peptide+ phenotype” value (Stage 5 cells; omitting Alk5i during Stage 5) was “decreased by omitting Alk5i” and the “fraction of cells differentiated to endocrine cells (CHGA+)” value (Stage 5 cells; omitting Alk5i during Stage 5) was “unchanged”. For the same compound, the “expression of NKX6-1 and PDX1” value (Stage 5 cells; without Alk5i during Stage 5) was “reduced without Alk5i”.

With `[Cl-].[K+]` [KCl] the “response of Stage 6 cells to KCl challenge compared to human islets” value (Stage 6 cells [1]; 30 mM KCL with 20 mM glucose) was “stronger than in human islets” and the “insulin secretion during second challenge, secretagogue added to 20 mM glucose” value (Stage 6 cells [1]) was “largest increases”.

With `N=C(N)NCCC[C@H](N)C(=O)O` [L-Arginine] the “insulin secretion during second challenge, secretagogue added to 20 mM glucose” value (Stage 6 cells [1]) was “largest increases”.

For `C/C1=C/C(=O)O[C@@H]2C[C@@H](CC[C@H](C)/C=C\CC1)O[C@@](O)([C@@H]1CSC(=O)N1)C2` [Latrunculin B], the “dose response of NEUROG3 expression” value (plated stage 4 cells; added during stage 4, qRT-PCR) was “increased NEUROG3 expression in a dose-dependent manner” and the “concentration required relative to latrunculin A to achieve a similar effect on NEUROG3” value (plated stage 4 cells; plated HUES8, stage 4) was about 10 ×.

`CCCCNC(=O)NS(=O)(=O)c1ccc(C)cc1` [Tolbutamide] was tested, and the “insulin secretion during second challenge, secretagogue added to 20 mM glucose” value (Stage 6 cells [1]) was “increased insulin secretion over high glucose alone”.

`C/C1=C\[C@H](C)C[C@H](C)OC(=O)C[C@H](c2ccc(O)cc2)NC(=O)[C@@H](Cc2c(Br)[nH]c3ccccc23)N(C)C(=O)[C@H](C)NC(=O)[C@@H](C)C1` [jasplakinolide] was tested, and the “premature NEUROG3 expression in reaggregated clusters” value (plated stage 4 cells; added to pancreatic progenitors during reaggregation after dispersion) was “attenuated premature NEUROG3 expression”.

In the case of exendin-4, the “insulin secretion during second challenge, secretagogue added to 20 mM glucose” value (Stage 6 cells [1]) is reported as “increased insulin secretion over high glucose alone”.
